Source: article PMC3735939, “The low levels of eicosapentaenoic acid in rat brain phospholipids are maintained via multiple redundant mechanisms” (Journal of Lipid Research, 2013)

Assays:
Type in all cases: in vivo, rat
[1] = tested on: mitochondrial FA β-oxidation; experiment: Radioactivity in brain aqueous fraction (marker of β-oxidation) after 5 min intravenous 14C-tracer infusion; details: MEP 10 mg/kg iv 10 min before infusion
Procedure: (§1) Twenty-four hours postsurgery, a second catheter (iv catheter 24 gauge/0.75 inch, Angiocath™; Becton Dickinson) was implanted into the tail vein where rats received either vehicle or 10 mg/kg of MEP. Ten minutes post injection of vehicle or MEP, the tail vein catheter was connected to a syringe containing radiolabeled ^14C-palmitate (n = 8), ^14C-DHA (n = 6), or ^14C-EPA (n = 7) attached to a computer-controlled variable speed pump (PHD 22/2000; Harvard Apparatus, Holliston, MA). […] Each rat received a dose of 76 μCi ^14C-palmitate, 76 μCi ^14C-DHA, or 78 μCi ^14C-EPA. […] The radiotracer infusions continued until rats were euthanized. The brain was excised and cut sagittally. Both hemispheres were stored at −80°C for radioactive and biochemical analyses. Plasma was isolated from whole blood via microcentrifugation at 6,200 rpm (2,000 g) for 5 min and stored at −80°C. Total lipids from one brain hemisphere and from plasma were extracted by the method of Folch, Lees, and Sloane Stanley ([39]). Isolation of various neutral lipid and phospholipid classes from the total lipid extract was previously described by Chen, Liu, and Bazinet ([6]).

[2] = Radioactivity in brain lipid fractions after 5 min intravenous 14C-tracer infusion (TLC, LSC); details: MEP vs vehicle
Procedure: as §1, with “([6]). FA methyl esters and radioactive acyl-CoA analysis were previously described by Chen, Liu, and Bazinet ([6]).” for “([6]).”

[3] = Brain unesterified FA concentrations (GC-MS; EPA by LC-MS/MS) in vehicle- or MEP-treated rats; details: MEP vs vehicle
Procedure: At 15 weeks of age, 16 rats were randomized to receive vehicle or 10 mg/kg MEP via tail vein catheter as described above. […] Brain hemispheres were homogenized in ethanol to yield a concentration of 100 mg tissue/ml. The unesterified FAs from 100 mg of brain tissue were isolated. The unesterified FA bands were collected and extracted twice from silica by hexane:isopropanol (3:2 by volume) with 5.5% water. […] The mixtures were shaken for 15 min and dried down with nitrogen gas. FA-PFB esters (FAPEs) were reconstituted in 100 μl hexane for GC-MS analysis as described below. For measurements of unesterified EPA, brain samples were homogenized in ethanol on ice. An aliquot of 100 mg tissue was spiked with ARA-d8 (20 ng; Cayman Chemical, Ann Arbor, MI) and dried under nitrogen gas in reduced light conditions. Residues were dissolved in ethanol, acidified to pH 4 with 1 N HCl, and extracted three times with ethyl acetate. After washing to neutrality with water, the ethyl acetate fraction was dried under nitrogen and transferred to siliconized minivials for liquid chromatography-tandem mass spectrometry (LC-MS/MS) analysis as described below. Brain unesterified EPA was detected using an Agilent HPLC 1200 equipped with a Zorbax SB-Phenyl column. HPLC solvent contained 4 μl/l propionic acid. The initial conditions of elution were set at 400 μl/min gradient system consisting of (A) water and (B) acetonitrile. […] Mass spectrometry analyses were carried out on API5500 triple quadruple mass spectrometer (AB SCIEX, Concord, ON, Canada). The QTRAP analyses were conducted in electrospray ionization negative ion mode. The turbospray temperature was set to 500°C and the ion spray voltage to 4,500 V. The collision energy, declustering potential, and collision cell exit potential were optimized and were set to 15, 50, and 11, respectively. Concentration was quantified by comparing the deuterium-to-protium ratio of brain unesterified EPA with standard lines generated from authentic standards. Authentic standards in appropriate dilutions (0.002-2 ng) were prepared and analyzed simultaneously with brain samples. The lower limit of quantification (LLQ) was 0.002 ng (6.3 fmol of […] identified with an Agilent 7890A gas chromatograph (Agilent Technologies) equipped with a SP-2380 (Supelco) fused silica column (Agilent Technologies; 30 m × 0.25 mm I.D. × 0.2 μm film thickness) and an Agilent 5975C quadruple mass spectrometry detector (Agilent Technologies). The sample was injected in split mode (10:1). The injection port temperature was set to 240°C and the ionization mode was set to negative chemical ionization using methane. FAPEs were eluted using a temperature program initially set at 150°C for 1 min, increase at 12°C/min to 270°C, and then at 40°C/min to 275°C for 3 min. […]

CCCCCCCCCCCCCCC1(C(=O)OC)CO1 (stereo not drawn) [MEP, methyl-2-tetradecylglycidate, reference compound]
reduction of radioactivity in brain aqueous fraction ([1]; 14C-DHA-infused rats): 23% | reduction of radioactivity in brain aqueous fraction ([1]; 14C-EPA-infused rats): 54% | reduction of radioactivity in brain aqueous fraction ([1]; 14C-palmitate-infused rats): 74% | increase in radioactivity of PtdSer ([2]; 14C-EPA-infused rats): 49% | increase in radioactivity of PtdIns ([2]; 14C-palmitate-infused rats): 65% | fold increase in brain unesterified EPA [3]: 1.3 fold | fold increase in brain unesterified linoleate (18:2n-6) [3]: 1.4 fold | fold increase in brain unesterified palmitate [3]: 2.5 fold | fold increase in brain unesterified α-linolenate (18:3n-3) [3]: 1.5 fold
